# Measured values from patent US20230108049A1, “ORAL FAST-DISPERSING DOSAGE FORM OF RIMEGEPANT” (BIOHAVEN PHARMACEUTICAL HOLDING COMPANY LTD., priority 2020, published 2023).
# How the values were obtained:
# pregnant rabbits = experiment: Embryofetal development study, oral administration during organogenesis, rabbits; assay type: in vivo, rabbit
# Method: The highest dose tested (50 mg/kg/day) was associated with plasma exposures (AUC) approximately 10 times that in humans at the MRHD.
# healthy volunteers = experiment: Resting blood pressure on concomitant administration with sumatriptan; assay type: in vivo, human; conditions: with sumatriptan 12 mg subcutaneous vs sumatriptan alone
# Excerpt: The relationship between pharmacodynamic activity and the mechanism(s) by which rimegepant exerts its clinical effects is unknown.
# [1] = Dedicated clinical study, pharmacokinetics in renal impairment; assay type: in vivo, human
# Method: In a dedicated clinical study comparing the pharmacokinetics of rimegepant in subjects with mild (estimated creatinine clearance [CLcr] 60-89 mL/min), moderate (CLcr 30-59 mL/min), and severe (CLcr 15-29 mL/min) renal impairment to that with normal subjects (healthy matched control), the exposure of rimegepant following single 75 mg dose was approximately 40% higher in subjects with moderate renal impairment. […] NURTEC ODT has not been studied in patients with end-stage renal disease (CLcr<15 mL/min) [see Use in Specific Populations].
# [2] = Pharmacokinetics in other specific populations; assay type: in vivo, human; conditions: based on age, sex, race/ethnicity, body weight, or CYP2C9 genotype
# CYP1A2 [3] = molecular target: CYP1A2 (Homo sapiens, UniProt P05177); experiment: In vitro enzyme inhibition; assay type: in vitro ADME; conditions: at clinically relevant concentrations
# Excerpt: (§1) Rimegepant is a substrate of CYP3A4 and CYP2C9 [see In Vivo Studies].
# CYP2B6 [4] = molecular target: CYP2B6 (Homo sapiens, UniProt P20813); experiment: In vitro enzyme inhibition; assay type: in vitro ADME; conditions: at clinically relevant concentrations
# Excerpt: as §1
# CYP2C19 = CYP2C19 (Homo sapiens, UniProt P33261); experiment: In vitro enzyme inhibition; assay type: in vitro ADME; conditions: at clinically relevant concentrations
# Excerpt: as §1
# CYP2C9 = CYP2C9 (Homo sapiens, UniProt P11712); experiment: In vitro enzyme inhibition; assay type: in vitro ADME; conditions: at clinically relevant concentrations
# Excerpt: as §1
# CYP2D6 = CYP2D6 (Homo sapiens, UniProt P10635); experiment: In vitro enzyme inhibition; assay type: in vitro ADME; conditions: at clinically relevant concentrations
# Excerpt: as §1
# CYP3A4 [5] = molecular target: CYP3A4 (Homo sapiens, UniProt P08684); experiment: In vitro enzyme inhibition; assay type: in vitro ADME
# Excerpt: as §1
# UGT1A1 = UGT1A1 (Homo sapiens, UniProt P22309); experiment: In vitro enzyme inhibition; assay type: in vitro ADME; conditions: at clinically relevant concentrations
# Excerpt: as §1
# CYP1A2 [6] = experiment: In vitro enzyme induction; assay type: in vitro ADME; conditions: at clinically relevant concentrations
# Excerpt: as §1
# CYP2B6 [7] = experiment: In vitro enzyme induction; assay type: in vitro ADME; conditions: at clinically relevant concentrations
# Excerpt: as §1
# CYP3A4 [8] = experiment: In vitro enzyme induction; assay type: in vitro ADME; conditions: at clinically relevant concentrations
# Excerpt: as §1
# BCRP [9] = molecular target: T1, BCRP (Homo sapiens, UniProt Q9UNQ0); experiment: In vitro transporter substrate study; assay type: in vitro ADME
# Method: (§2) Rimegepant is a substrate of P-gp and BCRP. Concomitant administration of inhibitors of P-gp or BCRP may increase the exposure of rimegepant [see Drug Interactions]. No dedicated drug interaction study was conducted to assess their effects on the pharmacokinetics of rimegepant.
# P-gp = P-gp (Homo sapiens, UniProt P08183); experiment: In vitro transporter substrate study; assay type: in vitro ADME
# Method: as §2
# OATP1B1 = OATP1B1 (Homo sapiens, UniProt Q9Y6L6); experiment: In vitro transporter substrate study; assay type: in vitro ADME
# Excerpt: (§3) Considering its low renal clearance, rimegepant was not evaluated as a substrate of the OAT1, OAT3, OCT2, MATE1, or MATE2-K.
# OATP1B3 = OATP1B3 (Homo sapiens, UniProt Q9NPD5); experiment: In vitro transporter substrate study; assay type: in vitro ADME
# Excerpt: as §3
# BCRP [10] = molecular target: T1, BCRP; experiment: In vitro transporter inhibition; assay type: in vitro ADME; conditions: at clinically relevant concentrations
# CYP3A4 and CYP2C9 = experiment: Dedicated drug interaction study with fluconazole (combined moderate CYP3A4 and CYP2C9 inhibitor); assay type: in vivo, human; conditions: 75 mg single dose with fluconazole
# Tg.rasH2 mice = experiment: Carcinogenesis study, oral, 26 weeks, Tg.rasH2 mice; assay type: in vivo, mouse; conditions: oral 0, 10, 100, or 300 mg/k/day for 26 weeks
# rats = experiment: Carcinogenesis study, oral, 91-100 weeks, rats; assay type: in vivo, rat
# [11] = tested on: bacterial reverse-mutation; experiment: Bacterial reverse-mutation assay (in vitro); assay type: cell-based
# Excerpt: (§4) Rimegepant was negative in in vitro (bacterial reverse-mutation, chromosomal aberration in Chinese hamster ovary cells) and in vivo (rat micronucleus) assays.
# [12] = tested on: Chinese hamster ovary cells; experiment: Chromosomal aberration assay (in vitro); assay type: cell-based
# Excerpt: as §4
# male and female rats = experiment: Fertility study, oral, male and female rats (0, 30, 60, or 150 mg/kg/day); assay type: in vivo, rat
# T1 sequence (Q9UNQ0 whole entry): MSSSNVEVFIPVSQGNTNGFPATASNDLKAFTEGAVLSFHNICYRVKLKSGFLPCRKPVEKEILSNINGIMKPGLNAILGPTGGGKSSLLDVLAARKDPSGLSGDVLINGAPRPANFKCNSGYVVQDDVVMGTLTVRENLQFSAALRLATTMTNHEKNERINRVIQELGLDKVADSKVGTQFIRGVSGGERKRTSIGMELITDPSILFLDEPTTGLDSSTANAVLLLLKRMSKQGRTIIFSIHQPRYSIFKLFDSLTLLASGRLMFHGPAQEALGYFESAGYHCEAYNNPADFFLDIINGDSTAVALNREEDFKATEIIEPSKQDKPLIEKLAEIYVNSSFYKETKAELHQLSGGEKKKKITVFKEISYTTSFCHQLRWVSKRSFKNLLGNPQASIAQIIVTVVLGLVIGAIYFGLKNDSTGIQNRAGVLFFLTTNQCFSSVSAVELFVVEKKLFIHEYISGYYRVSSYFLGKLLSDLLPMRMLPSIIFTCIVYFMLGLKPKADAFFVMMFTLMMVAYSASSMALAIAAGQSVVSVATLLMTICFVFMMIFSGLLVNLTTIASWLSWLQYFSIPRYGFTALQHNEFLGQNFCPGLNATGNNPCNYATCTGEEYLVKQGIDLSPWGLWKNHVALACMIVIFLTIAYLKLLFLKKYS
# Sequence of CYP2D6 (P10635 whole entry): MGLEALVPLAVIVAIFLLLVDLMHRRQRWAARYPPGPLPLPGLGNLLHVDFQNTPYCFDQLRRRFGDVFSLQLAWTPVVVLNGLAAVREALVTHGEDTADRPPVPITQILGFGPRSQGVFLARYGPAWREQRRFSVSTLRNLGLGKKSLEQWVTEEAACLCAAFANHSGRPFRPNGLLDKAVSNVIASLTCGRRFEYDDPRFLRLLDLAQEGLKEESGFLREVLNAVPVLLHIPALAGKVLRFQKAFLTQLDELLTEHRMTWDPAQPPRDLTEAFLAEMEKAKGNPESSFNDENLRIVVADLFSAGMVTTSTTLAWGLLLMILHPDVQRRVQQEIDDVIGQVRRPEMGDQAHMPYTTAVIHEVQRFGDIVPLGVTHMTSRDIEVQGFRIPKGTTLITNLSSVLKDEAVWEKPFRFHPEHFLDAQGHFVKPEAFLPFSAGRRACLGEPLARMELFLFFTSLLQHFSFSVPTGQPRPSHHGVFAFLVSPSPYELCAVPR
# Sequence of CYP2B6 (Homo sapiens, UniProt P20813) (P20813 whole entry): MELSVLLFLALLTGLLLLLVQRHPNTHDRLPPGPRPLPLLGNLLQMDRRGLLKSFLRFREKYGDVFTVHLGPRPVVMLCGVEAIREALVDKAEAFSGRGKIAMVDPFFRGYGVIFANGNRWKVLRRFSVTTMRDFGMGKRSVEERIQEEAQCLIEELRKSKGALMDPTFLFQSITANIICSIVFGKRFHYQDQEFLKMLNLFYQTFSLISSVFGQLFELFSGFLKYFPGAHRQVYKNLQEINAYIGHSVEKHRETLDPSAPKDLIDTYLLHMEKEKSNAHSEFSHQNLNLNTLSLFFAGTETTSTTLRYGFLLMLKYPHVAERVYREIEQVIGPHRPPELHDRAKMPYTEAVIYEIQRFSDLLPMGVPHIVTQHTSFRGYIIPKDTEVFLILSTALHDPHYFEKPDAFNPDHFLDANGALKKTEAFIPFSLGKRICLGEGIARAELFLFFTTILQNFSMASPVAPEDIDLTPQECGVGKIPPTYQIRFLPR
# Sequence of CYP2C9 (P11712 whole entry): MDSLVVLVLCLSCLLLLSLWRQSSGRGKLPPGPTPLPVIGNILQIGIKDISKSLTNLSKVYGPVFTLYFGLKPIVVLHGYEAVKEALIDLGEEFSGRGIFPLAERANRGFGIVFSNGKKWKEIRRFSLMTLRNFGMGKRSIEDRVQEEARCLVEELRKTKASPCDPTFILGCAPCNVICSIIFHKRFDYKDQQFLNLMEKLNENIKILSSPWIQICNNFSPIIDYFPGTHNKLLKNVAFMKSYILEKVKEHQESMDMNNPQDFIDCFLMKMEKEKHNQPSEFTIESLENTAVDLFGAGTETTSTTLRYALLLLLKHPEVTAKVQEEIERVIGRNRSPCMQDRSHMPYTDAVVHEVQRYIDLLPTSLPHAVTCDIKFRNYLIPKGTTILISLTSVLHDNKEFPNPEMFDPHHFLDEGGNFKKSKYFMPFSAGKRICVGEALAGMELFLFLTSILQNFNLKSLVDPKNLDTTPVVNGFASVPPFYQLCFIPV
# Sequence of CYP2C19 (P33261 whole entry): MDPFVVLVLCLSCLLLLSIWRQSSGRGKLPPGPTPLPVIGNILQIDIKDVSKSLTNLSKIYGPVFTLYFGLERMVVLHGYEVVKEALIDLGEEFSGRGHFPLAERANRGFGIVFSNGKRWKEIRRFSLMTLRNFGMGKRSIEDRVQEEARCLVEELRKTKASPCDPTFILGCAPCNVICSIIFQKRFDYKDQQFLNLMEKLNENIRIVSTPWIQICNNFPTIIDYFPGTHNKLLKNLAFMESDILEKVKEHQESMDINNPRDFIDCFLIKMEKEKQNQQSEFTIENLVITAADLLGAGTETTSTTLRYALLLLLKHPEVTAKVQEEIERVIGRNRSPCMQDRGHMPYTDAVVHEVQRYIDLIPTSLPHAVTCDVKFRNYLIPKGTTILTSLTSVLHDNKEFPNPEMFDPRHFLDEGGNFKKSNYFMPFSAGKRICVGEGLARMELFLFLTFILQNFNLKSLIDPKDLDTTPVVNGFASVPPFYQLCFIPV
# Sequence of P-gp (P08183 whole entry): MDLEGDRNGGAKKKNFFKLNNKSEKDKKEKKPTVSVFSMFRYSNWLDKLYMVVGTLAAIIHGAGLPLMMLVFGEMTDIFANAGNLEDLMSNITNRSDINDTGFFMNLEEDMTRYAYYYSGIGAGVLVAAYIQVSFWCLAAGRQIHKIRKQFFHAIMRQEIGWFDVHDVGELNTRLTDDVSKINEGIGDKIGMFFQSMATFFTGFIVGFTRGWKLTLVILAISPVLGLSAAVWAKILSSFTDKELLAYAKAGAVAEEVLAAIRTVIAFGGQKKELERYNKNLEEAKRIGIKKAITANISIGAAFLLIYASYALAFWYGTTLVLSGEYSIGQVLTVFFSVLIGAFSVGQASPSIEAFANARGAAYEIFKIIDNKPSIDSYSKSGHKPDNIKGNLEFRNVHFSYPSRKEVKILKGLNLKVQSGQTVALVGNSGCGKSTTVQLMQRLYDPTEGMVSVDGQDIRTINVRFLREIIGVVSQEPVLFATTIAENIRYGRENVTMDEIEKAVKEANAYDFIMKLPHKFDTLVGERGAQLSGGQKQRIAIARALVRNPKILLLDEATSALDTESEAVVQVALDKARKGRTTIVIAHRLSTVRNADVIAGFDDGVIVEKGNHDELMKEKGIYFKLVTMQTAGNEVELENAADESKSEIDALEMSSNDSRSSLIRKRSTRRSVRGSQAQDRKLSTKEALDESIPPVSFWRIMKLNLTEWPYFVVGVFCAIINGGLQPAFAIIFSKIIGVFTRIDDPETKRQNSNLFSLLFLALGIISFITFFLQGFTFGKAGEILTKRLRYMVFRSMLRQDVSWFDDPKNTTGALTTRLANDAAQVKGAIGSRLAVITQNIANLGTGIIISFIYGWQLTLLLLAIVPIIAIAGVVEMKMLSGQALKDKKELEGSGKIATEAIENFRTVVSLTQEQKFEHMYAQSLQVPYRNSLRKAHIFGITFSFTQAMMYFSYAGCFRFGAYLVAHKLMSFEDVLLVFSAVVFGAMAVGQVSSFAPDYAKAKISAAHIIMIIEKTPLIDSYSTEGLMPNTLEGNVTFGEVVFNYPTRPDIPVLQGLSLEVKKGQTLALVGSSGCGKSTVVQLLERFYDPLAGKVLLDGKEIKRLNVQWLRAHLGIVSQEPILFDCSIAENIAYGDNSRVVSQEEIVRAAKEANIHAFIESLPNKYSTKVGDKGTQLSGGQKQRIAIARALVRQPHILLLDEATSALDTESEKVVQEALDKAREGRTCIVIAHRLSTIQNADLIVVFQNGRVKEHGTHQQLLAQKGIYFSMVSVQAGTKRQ
# Sequence of OATP1B1 (Q9Y6L6 whole entry): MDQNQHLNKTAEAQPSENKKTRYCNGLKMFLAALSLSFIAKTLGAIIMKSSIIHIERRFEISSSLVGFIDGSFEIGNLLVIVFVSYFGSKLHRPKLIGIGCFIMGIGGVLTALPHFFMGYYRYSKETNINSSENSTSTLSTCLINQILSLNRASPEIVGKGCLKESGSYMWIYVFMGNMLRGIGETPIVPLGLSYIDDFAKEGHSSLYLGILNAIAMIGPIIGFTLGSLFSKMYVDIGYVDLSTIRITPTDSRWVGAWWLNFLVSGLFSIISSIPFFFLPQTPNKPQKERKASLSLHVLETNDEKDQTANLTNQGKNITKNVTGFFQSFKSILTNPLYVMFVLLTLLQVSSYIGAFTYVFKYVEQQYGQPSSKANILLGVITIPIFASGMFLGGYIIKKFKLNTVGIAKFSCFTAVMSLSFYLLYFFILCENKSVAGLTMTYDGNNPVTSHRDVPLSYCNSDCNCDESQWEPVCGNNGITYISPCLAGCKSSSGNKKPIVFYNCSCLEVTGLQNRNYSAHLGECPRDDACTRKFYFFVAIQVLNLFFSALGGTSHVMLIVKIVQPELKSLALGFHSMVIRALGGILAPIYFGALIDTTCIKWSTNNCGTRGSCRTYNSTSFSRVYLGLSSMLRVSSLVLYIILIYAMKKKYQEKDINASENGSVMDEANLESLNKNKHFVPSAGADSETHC
structure (smiles),measurement,setting,value
"N[C@@H]1c2cccnc2[C@H](OC(=O)N2CCC(n3c(=O)[nH]c4ncccc43)CC2)CC[C@H]1c1cccc(F)c1F [rimegepant, (5S,6S,9R)-5-amino-6-(2,3-difluorophenyl)-6,7,8,9-tetrahydro-5H-cyclohepta[b]pyridin-9-yl 4-(2-oxo-2,3-dihydro-1H-imidazo[4,5-b]pyridin-1-yl)-1-piperidinecarboxylate]",effects on embryofetal development,"pregnant rabbits; 0, 10, 25, or 50 mg/kg/day oral",no adverse effects on embryofetal development
same,plasma exposure (AUC) relative to humans at the MRHD,pregnant rabbits; highest dose tested (50 mg/kg/day),approximately 10 times
same,resting blood pressure,healthy volunteers,No clinically relevant differences in resting blood pressure
same,difference in exposure vs normal renal function,[1]; severe renal impairment (CLcr 15-29 mL/min),no clinically meaningful difference
same,exposure higher than in normal subjects,"[1]; single 75 mg dose, moderate renal impairment (CLcr 30-59 mL/min)",approximately 40%
same,differences in pharmacokinetics,[2],No clinically significant differences
same,inhibition of CYP1A2,CYP1A2 [3],not an inhibitor
same,inhibition of CYP2B6,CYP2B6 [4],not an inhibitor
same,inhibition of CYP2C19,CYP2C19,not an inhibitor
same,inhibition of CYP2C9,CYP2C9,not an inhibitor
same,inhibition of CYP2D6,CYP2D6,not an inhibitor
same,inhibition of CYP3A4,CYP3A4 [5],weak inhibitor of CYP3A4 with time-dependent inhibition
same,inhibition of UGT1A1,UGT1A1,not an inhibitor
same,induction of CYP1A2,CYP1A2 [6],not an inducer
same,induction of CYP2B6,CYP2B6 [7],not an inducer
same,induction of CYP3A4,CYP3A4 [8],not an inducer
same,substrate of BCRP,BCRP [9],substrate
same,substrate of P-gp,P-gp,substrate
same,substrate of OATP1B1,OATP1B1,not a substrate
same,substrate of OATP1B3,OATP1B3,not a substrate
same,inhibition of BCRP,BCRP [10],not an inhibitor
same,effect on rimegepant Cmax,CYP3A4 and CYP2C9,no relevant effect
same,increase of rimegepant AUC,CYP3A4 and CYP2C9,1.8 fold
same,drug-induced tumors,Tg.rasH2 mice,no evidence of drug-induced tumors
same,plasma exposure (AUC) relative to humans at the MRHD of 75 mg/day,rats; highest dose tested (45 mg/kg/day),approximately 30 times
same,drug-induced tumors,"rats; oral 0, 5, 20, or 45 mg/kg/day for 91-100 weeks",no evidence of drug-induced tumors
same,"mutagenesis, bacterial reverse-mutation",[11],negative
same,"mutagenesis, chromosomal aberration",[12],negative
same,fertility,male and female rats; highest dose tested (150 mg/kg/day),reduced fertility at the highest dose tested
same,uterine histopathology,"male and female rats; oral 30, 60, or 150 mg/kg/day, prior to and during mating, females to GD 7",uterine atrophy at all doses
